Experimental data taken from ChEMBL document CHEMBL1151430, “Development of colistin-dependent Acinetobacter baumannii-Acinetobacter calcoaceticus complex” (2007).
In brackets after ≈: the same amount, converted by molar mass. Activity calls are given as the source filed them. The rule behind the calls is not given here.

How the values were obtained:
Acinetobacter [1] = assay: Antimicrobial activity against 8 ug/ml colistin-subcultured Acinetobacter baumannii-Acinetobacter calcoaceticus complex isolated from diabetic patient with calcaneal osteomyelitis and bacteremia by broth microdilution assay; assay type: functional
Acinetobacter [2] = assay: Antimicrobial activity against Acinetobacter baumannii-Acinetobacter calcoaceticus complex isolated from diabetic patient with calcaneal osteomyelitis by broth microdilution assay; assay type: functional

| Compound | MIC (Acinetobacter [1]) | MIC (Acinetobacter [2]) |
| --- | --- | --- |
| NCC[C@H](O)C(=O)N[C@@H]1C[C@H](N)[C@@H](O[C@H]2O[C@H](CN)[C@@H](O)[C@H](O)[C@H]2O)[C@H](O)[C@H]1O[C@H]1O[C@H](CO)[C@@H](O)[C@H](N)[C@H]1O [AMIKACIN] | inactive | 8 µg/mL (≈ 13.7 µM) |
| CC1(C)S[C@@H]2[C@H](NC(=O)[C@H](N)c3ccccc3)C(=O)N2[C@H]1C(=O)O [AMPICILLIN] | inactive | > 8 µg/mL |
| CC[C@H]1OC(=O)[C@H](C)[C@@H](O[C@H]2C[C@@](C)(OC)[C@@H](O)[C@H](C)O2)[C@H](C)[C@@H](O[C@@H]2O[C@H](C)C[C@H](N(C)C)[C@H]2O)[C@](C)(O)C[C@@H](C)CN(C)[C@H](C)[C@@H](O)[C@]1(C)O [AZITHROMYCIN] | inactive | 8 µg/mL (≈ 10.7 µM) |
| CC(C)(O/N=C(\C(=O)N[C@@H]1C(=O)N2C(C(=O)[O-])=C(C[n+]3ccccc3)CS[C@H]12)c1csc(N)n1)C(=O)O [CEFTAZIDIME] | inactive | > 64 µg/mL |
| O=C(O)[C@H]1/C(=C/CO)O[C@@H]2CC(=O)N21 [CLAVULANIC ACID] | inactive | > 2 µg/mL |
| C[C@H]1c2cccc(O)c2C(=O)C2=C(O)[C@]3(O)C(=O)C(C(N)=O)=C(O)[C@@H](N(C)C)[C@@H]3[C@@H](O)[C@@H]21.O [DOXYCYCLINE] | 1 µg/mL | 8 µg/mL |
| C[C@@H](O)[C@H]1C(=O)N2C(C(=O)O)=C(SCCNC=N)C[C@H]12 [IMIPENEM ANHYDROUS] | inactive | 16 µg/mL (≈ 53.4 µM) |
| CN(C)c1ccc(O)c2c1C[C@H]1C[C@H]3[C@H](N(C)C)C(O)=C(C(N)=O)C(=O)[C@@]3(O)C(O)=C1C2=O [MINOCYCLINE] | inactive | 1 µg/mL (≈ 2.19 µM) |
| CC1(C)[C@H](C(=O)O)N2C(=O)C[C@H]2S1(=O)=O [SULBACTAM] | inactive | > 64 µg/mL |
| CC1(C)S[C@@H]2[C@H](NC(=O)[C@H](C(=O)O)c3ccsc3)C(=O)N2[C@H]1C(=O)O [TICARCILLIN] | inactive | > 256 µg/mL |
| CN(C)c1cc(NC(=O)CNC(C)(C)C)c(O)c2c1C[C@H]1C[C@H]3[C@H](N(C)C)C(O)=C(C(N)=O)C(=O)[C@@]3(O)C(O)=C1C2=O [TIGECYCLINE] | 0.12 µg/mL | 2 µg/mL (≈ 3.41 µM) |
| COLISTIN | > 16 µg/mL | 1 µg/mL |
| GENTAMICIN | inactive | > 8 µg/mL |
| POLYMYXIN B | 4 µg/mL | 1 µg/mL |
